Results as given in patent US12661396B2, “Selective targeting of the TREML1/MD2 interaction by small peptide or protein and its use for vaccine adjuvants” (Ascendo Biotechnology, Inc., priority 2020, dated 2026).

Columns and labels:
BMDCs = experiment: Mouse bone marrow derived dendritic cell maturation (flow cytometry); type: cell-based; details: FIG. 8
Experimental: Femurs and tibiae were harvested from female C57BL/6 mice and extra muscle tissues were removed. Bones were disinfected in 70% ethanol, then rinsed with RPMI-1640 medium, and both ends were cut to flush out the bone marrow with RPMI-1640 medium using 26 G needle syringes. To disperse cell clumps, bone marrow suspension was pipetted in-and-out several times and washed twice with RPMI-1640 medium by centrifugation. […] At day 0, after cell counting, the leukocytes were seeded at a concentration of 2×10^6 cells/10 ml R10 medium containing 200 U/ml rmGM-CSF in sterile […] Petri dish and incubated at 37° C. with 5% CO2. At day 3, another 10 ml of R10 medium containing 200 U/ml rmGM-CSF was added. At days 6, one half of the supernatant was taken out and centrifuged to collect cell pellet, which was resuspend in original plate with 10 ml of R10 medium containing 200 U/ml GM-CSF. At day 8, non-adherent cells were collected by gentle pipetting and centrifuged at 300 g for 5 min. To obtain purer dendritic cells, the population of macrophages (F4/80^high) was removed with Anti-F4/80 MicroBeads UltraPure (130-110-443, Miltenyi Biotec, Bergisch Gladbach, Germany) following the manufacturer's instructions. Briefly, cell pellet was resuspended and mixed well in MACS buffer with Anti-F4/80 MicroBeads UltraPure. This mixture was incubated for 15 min in the dark in 4° C. After washing cells with MACS buffer, cells were resuspended in MACS buffer, filtered with 30 μm nylon mesh, and added to the MACS buffer rinsed column to separate F4/80^+ cells. Unlabeled cells were collected and washed with R10 medium. To freeze the cells, cell pellet was counted and resuspended at a concentration 1×10^7 cell in 2 ml CELLBANKER2 (#11891, ZENOAQ) per cryopreservation vial and stored at −80 degree Celsius.
BMDCs were thawed for the DC maturation experiments. These cells were seeded at 1×10^6 cells/2 ml in R10 medium containing 200 U/ml rmGM-CSF in wells of a 6-well tissue culture dish and cultured to recover the cell viability at 37° C. with 5% CO2. After 6 hr, BMDCs were treated with various fragments of mTREML1 protein and cultured in 37° C. with 5% CO2. On the next day, resuspended cells were collected and analyzed by flow cytometry.
Cells were centrifuged at 1800 rpm for 3 min in PBS containing 1% FBS and 0.1% sodium azide (PBSBA), and then divided at a concentration of 1×10^5 cells/100 ul PBSBA in flow tube. Before staining the surface marker of DC, cells were treated with mouse Fc blocker to avoid antibody non-specific binding at room temperature for 30 min. […] After PBSBA washing, samples were analyzed using the CytoFlex flow cytometer with the CytExpert software.

CT26 colon cancer cells = experiment: CT26 colon carcinoma model, tumor vaccine with adjuvant; type: in vivo, BALB/c mice; details: combined with tumor antigen 5E-GP70-15/aluminum mixture, s.c. on days 6 and 13; FIG. 9B
Experimental: To test TREML1 ECD or its stalk as a vaccine adjuvant or immune booster, we use a CT26 colon carcinoma animal model. […] Briefly, CT26 colon cancer cells (3×10^5 cells) were injected subcutaneously into BALB/c mice on day 0. When the tumor grows to 30-100 mm^3 on day 6, tumor vaccines (tumor antigen 5E-GP70-15/aluminum mixture with or without mouse TREML1 stalk; 100 μL/mouse each time) were injected subcutaneously. The vaccinations were repeated on days 13. Tumor volumes were measured every 3-4 days. […] A DNA vaccine containing the gp70 gene has been used to induce protective immunity against CT26 cells. (J. Takeda et al., “Anti-tumor immunity against CT26 colon tumor in mice immunized with plasmid DNA encoding beta-galactosidase fused to an envelope protein of endogenous retrovirus,” Cell Immunol., (2000), 204(1): 11-18).
For the establishment of syngeneic murine colon cancer models, BALB/c mice were subcutaneously injected in the back with 3×10^5 CT26 cells per mouse. When the volume of the inoculated tumor reached 30-100 mm^3, mice were randomly divided into cohorts for different treatments. […] During each animal study, tumor dimensions were monitored with caliper measurements, and the tumor volumes were calculated using the equation: […], wherein length is the longest diameter of the tumor and the width is the shortest diameter. […]

mMD2 = molecular target: T1, mMD2 (Mus musculus, UniProt Q9JHF9); experiment: Solid phase binding assay, mMD2 to immobilized mTREML1 stalk; details: stalk coated 5 ug/ml; FIG. 3B
T1 sequence (Q9JHF9 19-160): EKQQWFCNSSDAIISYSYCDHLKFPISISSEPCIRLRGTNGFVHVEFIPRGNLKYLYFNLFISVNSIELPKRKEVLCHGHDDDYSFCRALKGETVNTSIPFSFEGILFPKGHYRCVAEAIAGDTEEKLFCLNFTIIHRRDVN
Experimental: For TREML1 or mTREML1 stalk binding to human or mouse MD2 protein, TREML1 stalk or mTREML1 stalk (5 ug/ml in PBS) was coated separately on a 96-well plate. Recombinant hTLR4, hMD2, hCD14, or mMD2 was each serially diluted and added to the plates. Anti-His tag antibody-HRP was used as a detection antibody to detect the protein binding.

## mTREML1 stalk: mouse TREML1 stalk polypeptide, SEQ ID NO:4, EGEEAEDEKETYRIGTGSLLEDPSLDPSASAGPHEFRRRENSIP, chemically synthesized (listed as Mus musculus)
BMDCs
  dendritic cell maturation effect compared with TNF-α: significantly stronger than those of TNF-α
BMDCs; analyzed the next day
  dendritic cell maturation (DC maturation markers CD40, CD86, CD80, MHC II): can trigger dendritic cell maturation
CT26 colon cancer cells
  tumor volume, vaccine with mTREML1 stalk as adjuvant: dramatic reduction in the tumor volumes
mMD2
  mouse MD2 binding to immobilized mTREML1 stalk: can bind to the immobilized TREML1 stalk and mTREML1 stalk
